The values that follow come from PMC4554834 (Bioorganic & medicinal chemistry, 2015).

Bounds are passed on as bounds.

One test concerns the target T1, human OX2 receptors (Homo sapiens, UniProt O43614).
T1 sequence (O43614 1-444): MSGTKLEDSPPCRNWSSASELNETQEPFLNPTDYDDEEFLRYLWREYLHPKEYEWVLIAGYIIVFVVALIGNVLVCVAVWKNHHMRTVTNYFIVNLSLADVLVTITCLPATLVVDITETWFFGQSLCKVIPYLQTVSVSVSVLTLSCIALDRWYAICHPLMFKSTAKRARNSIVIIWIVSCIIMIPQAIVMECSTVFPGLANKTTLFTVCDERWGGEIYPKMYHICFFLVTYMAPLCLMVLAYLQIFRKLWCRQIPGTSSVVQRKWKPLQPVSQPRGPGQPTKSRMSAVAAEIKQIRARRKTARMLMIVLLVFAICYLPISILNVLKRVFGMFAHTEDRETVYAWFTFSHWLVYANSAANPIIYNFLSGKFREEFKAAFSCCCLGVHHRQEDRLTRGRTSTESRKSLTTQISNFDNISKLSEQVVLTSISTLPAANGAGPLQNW
Briefly: Calcium mobilization Ke. Format: cell-based.

For another test, the target named is T2, human OX1 receptors (Homo sapiens, UniProt O43613).
T2 sequence (O43613 1-425): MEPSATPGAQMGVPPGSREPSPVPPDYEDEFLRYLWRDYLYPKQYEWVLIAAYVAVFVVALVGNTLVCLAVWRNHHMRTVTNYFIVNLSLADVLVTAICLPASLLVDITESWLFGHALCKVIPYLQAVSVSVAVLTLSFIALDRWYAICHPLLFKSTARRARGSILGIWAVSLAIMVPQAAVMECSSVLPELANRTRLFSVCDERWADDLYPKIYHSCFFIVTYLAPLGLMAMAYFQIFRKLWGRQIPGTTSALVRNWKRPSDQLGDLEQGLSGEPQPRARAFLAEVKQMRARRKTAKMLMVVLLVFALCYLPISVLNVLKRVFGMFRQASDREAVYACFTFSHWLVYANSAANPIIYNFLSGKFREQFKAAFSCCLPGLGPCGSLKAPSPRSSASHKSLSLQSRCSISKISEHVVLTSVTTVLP
Briefly: Calcium mobilization Ke. The class given is cell-based. To be noted: for OX1 potency (in words): qualitative statement. (In general: Calcium flux is commonly read through the fluorescence of an indicator in the cells.)

For the next test, the system named is OX2 receptor. The settings on record: cited from earlier work.
The next test has as its system OX1. The settings on record: cited from earlier work.
For test [1] the following is noted: cited from earlier work.

Take `COc1ccc2c(c1)C(Cc1ccc(OC)c(OC)c1)N(CC(=O)NCc1ccccc1)CC2` (stereo not drawn) [10a, N-Benzyl-2-{1-[(3,4-dimethoxyphenyl)methyl]-7-methoxy-1,2,3,4-tetrahydroisoquinolin-2-yl}acetamide]: the Kb is 1680 ± 330 nM at human OX2 receptors and 512 ± 36 nM at human OX1 receptors.

For `CCCOc1ccc2c(c1)C(Cc1ccc(OC)c(OC)c1)N(CC(=O)NCc1ccccc1)CC2` (stereo not drawn) [10c, N-Benzyl-2-{1-[(3,4-dimethoxyphenyl)methyl]-7-propoxy-1,2,3,4-tetrahydroisoquinolin-2-yl}acetamide], the Kb amounted to 2550 ± 260 nM on human OX2 receptors and 23.7 ± 7.9 nM on human OX1 receptors. In addition, on human OX1 receptors (15 minute pre-incubation), the “mode of antagonism at OX1” value was “competitive antagonism”. The “selectivity for OX1 over OX2” value at human OX1 receptors (OX2 versus OX1 Ke) is reported as greater than 100 fold.

On to `COc1ccc(CC2c3ccc(OS(C)(=O)=O)cc3CCN2CC(=O)NCc2ccccc2)cc1OC` (stereo not drawn) [18a, 2-[(Benzylcarbamoyl)methyl]-1-[(3,4-dimethoxyphenyl)methyl]-1,2,3,4-tetrahydroisoquinolin-6-yl methanesulfonate], for which the Kb at human OX2 receptors was 1330 ± 260 nM; at human OX1 receptors, greater than 10000 nM. With `COC(=O)Nc1ccc2c(c1)CCN(CC(=O)NCc1ccccc1)C2Cc1ccc(OC)c(OC)c1` (stereo not drawn) [23a, Methyl N-{2-[(benzylcarbamoyl)methyl]-1-[(3,4-dimethoxyphenyl)methyl]-1,2,3,4-tetrahydroisoquinolin-6-yl}carbamate], on human OX2 receptors, the Kb is greater than 10000 nM. On human OX1 receptors, the Kb was determined as 2400 ± 320 nM and the “OX1 potency (in words)” value is reported as “slight potency”.

Consider `CCOC(=O)Nc1ccc2c(c1)CCN(CC(=O)NCc1ccccc1)C2Cc1ccc(OC)c(OC)c1` (stereo not drawn) [23b, Ethyl N-{2-[(benzylcarbamoyl)methyl]-1-[(3,4-dimethoxyphenyl)methyl]-1,2,3,4-tetrahydroisoquinolin-6-yl}carbamate], for which the Kb at human OX2 receptors was greater than 10000 nM. On human OX1 receptors, the Kb is greater than 10000 nM and the “OX1 potency (in words)” value is reported as “not active”. On to `CCCCCCNc1ccc2c(c1)CCN(CC(=O)NCc1ccccc1)C2Cc1ccc(OC)c(OC)c1` (stereo not drawn) [25t, N-Benzyl-2-{1-[(3,4-dimethoxyphenyl)methyl]-6-(hexylamino)-1,2,3,4-tetrahydroisoquinolin-2-yl}acetamide], for which, on human OX1 receptors, the Kb was greater than 10000 nM.

As for `CCCCCCN(C)c1ccc2c(c1)CCN(CC(=O)NCc1ccccc1)C2Cc1ccc(OC)c(OC)c1` (stereo not drawn) [25u, N-Benzyl-2-{1-[(3,4-dimethoxyphenyl)methyl]-6-[hexyl(methyl)amino]-1,2,3,4-tetrahydroisoquinolin-2-yl}acetamide], the Kb at human OX1 receptors is greater than 10000 nM.

In the case of `CCOC(=O)CNc1ccc2c(c1)CCN(CC(=O)NCc1ccccc1)C2Cc1ccc(OC)c(OC)c1` (stereo not drawn) [26a, Ethyl 2-({2-[(benzylcarbamoyl)methyl]-1-[(3,4-dimethoxyphenyl)methyl]-1,2,3,4-tetrahydroisoquinolin-6-yl}amino)acetate], at human OX1 receptors, the Kb was determined as 427 ± 69 nM and the “OX1 potency (in words)” value is “some activity”. Regarding `CCOC(=O)C(C)Nc1ccc2c(c1)CCN(CC(=O)NCc1ccccc1)C2Cc1ccc(OC)c(OC)c1` (stereo not drawn) [26b, Ethyl 2-({2-[(benzylcarbamoyl)methyl]-1-[(3,4-dimethoxyphenyl)methyl]-1,2,3,4-tetrahydroisoquinolin-6-yl}amino)propanoate], at human OX1 receptors, the Kb was greater than 10000 nM.

For the compound `CCOC(=O)CCNc1ccc2c(c1)CCN(CC(=O)NCc1ccccc1)C2Cc1ccc(OC)c(OC)c1` (stereo not drawn) [26c, Ethyl 3-({2-[(benzylcarbamoyl)methyl]-1-[(3,4-dimethoxyphenyl)methyl]-1,2,3,4-tetrahydroisoquinolin-6-yl}amino)propanoate], on human OX1 receptors, the Kb came out at 809 ± 200 nM and the “OX1 potency (in words)” value was “some activity”. With `CCOC(=O)CCCNc1ccc2c(c1)CCN(CC(=O)NCc1ccccc1)C2Cc1ccc(OC)c(OC)c1` (stereo not drawn) [26d, Ethyl 4-({2-[(benzylcarbamoyl)methyl]-1-[(3,4-dimethoxyphenyl)methyl]-1,2,3,4-tetrahydroisoquinolin-6-yl}amino)butanoate], the Kb on human OX2 receptors was greater than 10000 nM. On human OX1 receptors, the Kb was 591 ± 67 nM and the “OX1 potency (in words)” value is “some activity”. In the case of `COc1ccc(CC2c3ccc(NCCCC(=O)OC(C)(C)C)cc3CCN2CC(=O)NCc2ccccc2)cc1OC` (stereo not drawn) [26e, Tert-butyl 4-({2-[(benzylcarbamoyl)methyl]-1-[(3,4-dimethoxyphenyl)methyl]-1,2,3,4-tetrahydroisoquinolin-6-yl}amino)butanoate], the Kb at human OX1 receptors came to 1010 ± 200 nM. The “mode of antagonism at OX1” value at human OX1 receptors (15 minute pre-incubation) is reported as “insurmountable antagonism”; on human OX1 receptors (pre-incubation increased to 45 min and 60 min), “competitive antagonists”; on human OX1 receptors (simultaneous addition of antagonist and Orexin A) it was “competitive antagonists”. For `COC(=O)CCCCNc1ccc2c(c1)CCN(CC(=O)NCc1ccccc1)C2Cc1ccc(OC)c(OC)c1` (stereo not drawn) [26f, Methyl 5-({2-[(benzylcarbamoyl)methyl]-1-[(3,4-dimethoxyphenyl)methyl]-1,2,3,4-tetrahydroisoquinolin-6-yl}amino)pentanoate], the Kb on human OX1 receptors came out at 1600 ± 190 nM. The same measure, in the same setting: as for `CCOC(=O)CCCCCCNc1ccc2c(c1)CCN(CC(=O)NCc1ccccc1)C2Cc1ccc(OC)c(OC)c1` (stereo not drawn) [26g, Ethyl 7-({2-[(benzylcarbamoyl)methyl]-1-[(3,4-dimethoxyphenyl)methyl]-1,2,3,4-tetrahydroisoquinolin-6-yl}amino)heptanoate], the figure is greater than 10000 nM.

Regarding `COc1ccc(CC2c3ccc(NCC(=O)N(C)C)cc3CCN2CC(=O)NCc2ccccc2)cc1OC` (stereo not drawn) [26h, 2-({2-[(Benzylcarbamoyl)methyl]-1-[(3,4-dimethoxyphenyl)methyl]-1,2,3,4-tetrahydroisoquinolin-6-yl}amino)-N,N-dimethylacetamide], on human OX1 receptors, the Kb was greater than 10000 nM and the “OX1 potency (in words)” value is “large decline in potency”.

As for `COc1ccc(CC2c3ccc(NC(C)=O)cc3CCN2CC(=O)NCc2ccccc2)cc1OC` (stereo not drawn) [28a, N-Benzyl-2-{1-[(3,4-dimethoxyphenyl)methyl]-6-acetamido-1,2,3,4-tetrahydroisoquinolin-2-yl}acetamide], the Kb on human OX1 receptors is greater than 10000 nM.

Consider `CCCCCC(=O)Nc1ccc2c(c1)CCN(CC(=O)NCc1ccccc1)C2Cc1ccc(OC)c(OC)c1` (stereo not drawn) [28b, N-{2-[(Benzylcarbamoyl)methyl]-1-[(3,4-dimethoxyphenyl)methyl]-1,2,3,4-tetrahydroisoquinolin-6-yl}hexanamide], for which the Kb on human OX2 receptors and on human OX1 receptors was greater than 10000 nM throughout. Take `COc1ccc(CC2c3ccc(NC(=O)c4ccccc4)cc3CCN2CC(=O)NCc2ccccc2)cc1OC` (stereo not drawn) [28c, N-{2-[(Benzylcarbamoyl)methyl]-1-[(3,4-dimethoxyphenyl)methyl]-1,2,3,4-tetrahydroisoquinolin-6-yl}benzamide]: the Kb on human OX1 receptors was greater than 10000 nM. On to `COc1ccc(CC2c3ccc(NC(=O)Nc4ccccc4)cc3CCN2CC(=O)NCc2ccccc2)cc1OC` (stereo not drawn) [28d, N-Benzyl-2-{1-[(3,4-dimethoxyphenyl)methyl]-6-[(phenylcarbamoyl)amino]-1,2,3,4-tetrahydroisoquinolin-2-yl}acetamide], for which, on human OX1 receptors, the Kb is greater than 10000 nM and the “OX1 potency (in words)” value is given as “no significant potency”. Turning to `CCCCCCNC(=O)Nc1ccc2c(c1)CCN(CC(=O)NCc1ccccc1)C2Cc1ccc(OC)c(OC)c1` (stereo not drawn) [28e, N-Benzyl-2-{1-[(3,4-dimethoxyphenyl)methyl]-6-[(hexylcarbamoyl)amino]-1,2,3,4-tetrahydroisoquinolin-2-yl}acetamide], on human OX1 receptors, the Kb amounted to 5230 ± 680 nM and the “OX1 potency (in words)” value was “no significant potency”. Turning to `CNC(=O)[C@@H](c1ccccc1)N1CCc2cc(OC)c(OC)cc2[C@@H]1CCc1ccc(C(F)(F)F)cc1` [Almorexant, almorexant], the “mode of antagonism at the OX2 receptor” value with OX2 receptor is “insurmountable antagonist”. Consider `Cc1nc2ccc(NC(=O)Nc3ccnc4cccnc34)cc2o1` [SB-334867], for which, in the test with OX1, the “selectivity for OX1 over OX2” value was ~ 50 fold. For `COc1cc2c(cc1OC)CN(C(=O)[C@@H](NCc1ccncc1)C(C)(C)C)CC2` [TCS-OX2-29], the “effect on cocaine self-administration” value in test [1] is given as “no effect”. The “effect on cue-induced reinstatement” value in test [1] (cocaine) is reported as “no effect”. As for `CCC(=O)Oc1ccc2c(c1)CCN(CC(=O)NCc1ccccc1)C2Cc1ccc(OC)c(OC)c1` (stereo not drawn) [compound 19, 2-[(Benzylcarbamoyl)methyl]-1-[(3,4-dimethoxyphenyl)methyl]-1,2,3,4-tetrahydroisoquinolin-6-yl propanoate], the Kb on human OX2 receptors is 1290 ± 130 nM; at human OX1 receptors, greater than 10000 nM. As to `COc1ccc(CC2c3ccc(NS(C)(=O)=O)cc3CCN2CC(=O)NCc2ccccc2)cc1OC` (stereo not drawn) [compound 27, N-Benzyl-2-{1-[(3,4-dimethoxyphenyl)methyl]-6-methanesulfonamido-1,2,3,4-tetrahydroisoquinolin-2-yl}acetamide], on human OX1 receptors, the Kb is greater than 10000 nM and the “OX1 potency (in words)” value is listed as “no significant potency”.
